Measurements: the NIST ThermoML archive (doi:10.1016/j.jct.2017.01.006)
± gives the expanded uncertainty stated by the source.

Assay: Molar enthalpy of transition or fusion
Settings: Crystal; DSC

Molar enthalpy of transition or fusion: 3.92 ± 0.21 kcal/mol
Structure (SMILES): Nc1ccc(N)c([N+](=O)[O-])c1 [2-nitro-1,4-benzenediamine]
